For experiment [1], the target named is T1, recombinant guanylate cyclase reporter cell line (Rattus norvegicus, UniProt P19686+P20595).
T1 construct: expressed in transfected cells
T1 sequence (P19686 1-690): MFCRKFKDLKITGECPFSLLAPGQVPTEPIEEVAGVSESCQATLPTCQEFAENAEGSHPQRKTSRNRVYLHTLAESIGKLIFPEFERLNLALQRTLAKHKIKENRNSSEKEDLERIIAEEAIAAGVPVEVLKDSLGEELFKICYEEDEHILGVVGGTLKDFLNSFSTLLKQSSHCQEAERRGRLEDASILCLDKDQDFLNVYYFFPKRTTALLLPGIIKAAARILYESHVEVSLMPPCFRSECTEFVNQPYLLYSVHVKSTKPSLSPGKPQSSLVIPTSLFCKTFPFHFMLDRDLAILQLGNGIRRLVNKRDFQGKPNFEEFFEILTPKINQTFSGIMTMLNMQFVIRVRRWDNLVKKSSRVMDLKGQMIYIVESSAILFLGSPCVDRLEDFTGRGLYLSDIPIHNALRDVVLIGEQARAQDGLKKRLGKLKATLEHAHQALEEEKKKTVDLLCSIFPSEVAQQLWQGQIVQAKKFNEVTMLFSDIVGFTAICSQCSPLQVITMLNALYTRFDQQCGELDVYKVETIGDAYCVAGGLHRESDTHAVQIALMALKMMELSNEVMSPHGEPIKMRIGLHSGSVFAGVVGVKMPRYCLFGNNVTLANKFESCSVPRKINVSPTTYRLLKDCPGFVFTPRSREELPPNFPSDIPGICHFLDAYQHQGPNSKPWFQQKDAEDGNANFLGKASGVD
T1 sequence (P20595 1-619): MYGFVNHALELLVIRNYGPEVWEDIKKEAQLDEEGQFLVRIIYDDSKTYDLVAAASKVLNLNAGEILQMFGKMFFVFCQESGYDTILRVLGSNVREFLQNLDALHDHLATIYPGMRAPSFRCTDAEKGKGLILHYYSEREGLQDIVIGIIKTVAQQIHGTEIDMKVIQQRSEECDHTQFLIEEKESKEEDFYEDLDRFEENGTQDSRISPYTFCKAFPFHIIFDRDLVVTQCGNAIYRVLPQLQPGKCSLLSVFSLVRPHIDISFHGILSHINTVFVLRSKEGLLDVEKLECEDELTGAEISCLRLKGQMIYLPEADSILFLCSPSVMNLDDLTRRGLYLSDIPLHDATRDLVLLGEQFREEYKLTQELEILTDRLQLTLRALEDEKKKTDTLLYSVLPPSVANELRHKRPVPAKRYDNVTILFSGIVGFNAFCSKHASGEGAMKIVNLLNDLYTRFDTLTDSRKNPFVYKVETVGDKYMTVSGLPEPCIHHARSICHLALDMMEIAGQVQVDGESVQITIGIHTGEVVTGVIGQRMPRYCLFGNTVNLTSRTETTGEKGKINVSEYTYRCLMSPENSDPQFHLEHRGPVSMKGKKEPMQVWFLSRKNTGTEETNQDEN
The experiment is described as follows: Effect on a recombinant guanylate cyclase reporter cell line. The experiment is classed as cell-based. Conditions: MEC = minimum effective concentration; in some cases means of individual determinations. An outline of the steps: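 Values are reported as MEC, sometimes averaged over individual determinations. The test system is a reporter cell line expressing recombinant rat guanylate cyclase.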

In experiment [2] the target is T2, human phosphodiesterase 5 (PDE 5) (Homo sapiens, UniProt O76074).
T2 construct: PDE 5 preparations are obtained from human platelets by disruption; from tissue; host or cells: human platelets
The experiment is described as follows: Inhibition of human phosphodiesterase 5 (PDE 5). The experiment is classed as biochemical. Conditions: PDE 5 preparation from human platelets; in some cases means of individual determinations. An outline of the steps:
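IC50 comes from percent inhibition over a 1:3 series with final levels of 4 to 0.0018 μM. Reaction: tritiated cGMP tracer (0.025 μCi) with platelet-derived, Mono Q-purified enzyme, 1 h at room temperature in Tris pH 7.5, under 70% turnover. Read-out by scintillation proximity beads.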

For the molecule `CCCNC(=O)c1nc(-c2nn(Cc3ccccc3F)c3ncccc23)nc2c1C(C)(C)C(=O)N2` [Example 81, 2-[1-(2-fluorobenzyl)-1H-pyrazolo[3,4-b]pyridin-3-yl]-5,5-dimethyl-6-oxo-N-propyl-6,7-dihydro-5H-pyrrolo[2,3-d]pyrimidine-4-carboxamide], the MEC in experiment [1] was 0.1 µM. Besides, the IC50 (usually the concentration that inhibits the measured activity by half) in experiment [2] worked out at 15 nM.
For `CC(C)(O)CNC(=O)c1nc(-c2nn(Cc3ccccc3F)c3ncccc23)nc2c1C(C)(C)C(=O)N2` [Example 25] the same measures were 0.3 µM and 2 nM.
Take `CNC(=O)c1nc(-c2nn(Cc3ccccc3F)c3ncccc23)nc2c1C(C)(C)C(=O)N2` [Example 86, 2-[1-(2-fluorobenzyl)-1H-pyrazolo[3,4-b]pyridin-3-yl]-N,5,5-trimethyl-6-oxo-6,7-dihydro-5H-pyrrolo[2,3-d]pyrimidine-4-carboxamide]: the MEC in experiment [1] is 0.1 µM. For the same molecule, in experiment [2], the half-maximal inhibitory concentration (IC50) worked out at 44 nM.
For `CC(C)=CCNC(=O)c1nc(-c2nn(Cc3ccccc3F)c3ncccc23)nc2c1C(C)(C)C(=O)N2` [Example 85, 2-[1-(2-fluorobenzyl)-1H-pyrazolo[3,4-b]pyridin-3-yl]-5,5-dimethyl-N-(3-methylbut-2-en-1-yl)-6-oxo-6,7-dihydro-5H-pyrrolo[2,3-d]pyrimidine-4-carboxamide] the same measures were 0.1 µM and 38 nM.
For `Cc1nc2c(cc1F)c(-c1nc3c(c(C(=O)NC4CC4)n1)C(C)(C)C(=O)N3)nn2Cc1cccc(F)c1F` [Example 37], in that order: 0.1 µM and 4 nM.
Turning to `CC(N)(CNC(=O)c1nc(-c2nn(Cc3ncccc3F)c3ncc(F)cc23)nc2c1C(C)(C)C(=O)N2)CC(F)F` (single isomer, unassigned; enantiomer a) [Example 55, ent-N-(2-Amino-4,4-difluoro-2-methylbutyl)-2-{5-fluoro-1-[(3-fluoropyridin-2-yl)methyl]-1H-pyrazolo[3,4-b]pyridin-3-yl}-5,5-dimethyl-6-oxo-6,7-dihydro-5H-pyrrolo[2,3-d]pyrimidine-4-carboxamide (enantiomer A)], in experiment [1], the MEC was 3 µM. Further, the half-inhibitory concentration (IC50) in experiment [2] is 190 nM.
As to `CC1(C)C(=O)Nc2nc(-c3nn(Cc4ncccc4F)c4ncc(F)cc34)nc(C(N)=O)c21` [Example 8, 2-{5-fluoro-1-[(3-fluoropyridin-2-yl)methyl]-1H-pyrazolo[3,4-b]pyridin-3-yl}-5,5-dimethyl-6-oxo-6,7-dihydro-5H-pyrrolo[2,3-d]pyrimidine-4-carboxamide], in experiment [1], the MEC worked out at 2 µM. Further, in experiment [2], the IC50 was 81 nM.
For `CC1(C)C(=O)Nc2nc(-c3nn(Cc4ccccc4F)c4ncccc34)nc(C(=O)NCC3(O)CC3)c21` [Example 138, 2-[1-(2-fluorobenzyl)-1H-pyrazolo[3,4-b]pyridin-3-yl]-N-[(1-hydroxycyclopropyl)methyl]-5,5-dimethyl-6-oxo-6,7-dihydro-5H-pyrrolo[2,3-d]pyrimidine-4-carboxamide] the same measures were 1 µM and 21 nM.
For `CN(C(=O)c1nc(-c2nn(Cc3ccccc3F)c3ncc(F)cc23)nc2c1C(C)(C)C(=O)N2)C1CC1` [Example 52], in that order: 0.01 µM and 150 nM.
For `CC1(C)C(=O)Nc2nc(-c3nn(Cc4ccccc4F)c4ncccc34)nc(C(=O)Nc3cn[nH]c3)c21` [Example 100, 2-[1-(2-fluorobenzyl)-1H-pyrazolo[3,4-b]pyridin-3-yl]-5,5-dimethyl-6-oxo-N-(1H-pyrazol-4-yl)-6,7-dihydro-5H-pyrrolo[2,3-d]pyrimidine-4-carboxamide] the same measures were 0.3 µM and 4.3 nM.
Take `Cc1nc2c(cc1F)c(-c1nc3c(c(C(N)=O)n1)C(C)(C)C(=O)N3)nn2Cc1ncccc1F` [Example 7, 2-{5-Fluoro-1-[(3-fluoropyridin-2-yl)methyl]-6-methyl-1H-pyrazolo[3,4-b]pyridin-3-yl}-5,5-dimethyl-6-oxo-6,7-dihydro-5H-pyrrolo[2,3-d]pyrimidine-4-carboxamide]: in experiment [1], the MEC turned out to be 3 µM. This molecule also showed an IC50 in experiment [2] of 130 nM.
For `Cc1nc2c(cc1F)c(-c1nc3c(c(C(N)=O)n1)C(C)(C(F)(F)F)C(=O)N3)nn2Cc1c(F)ccc(F)c1F` (racemic) [Example 15, rac-2-[5-fluoro-6-methyl-1-(2,3,6-trifluorobenzyl)-1H-pyrazolo[3,4-b]pyridin-3-yl]-5-methyl-6-oxo-5-(trifluoromethyl)-6,7-dihydro-5H-pyrrolo[2,3-d]pyrimidine-4-carboxamide], in that order: 0.2 µM and 1200 nM.
For `CN(CCO)C(=O)c1nc(-c2nn(Cc3ccccc3F)c3ncccc23)nc2c1C(C)(C)C(=O)N2` [Example 120, 2-[1-(2-fluorobenzyl)-1H-pyrazolo[3,4-b]pyridin-3-yl]-N-(2-hydroxyethyl)-N,5,5-trimethyl-6-oxo-6,7-dihydro-5H-pyrrolo[2,3-d]pyrimidine-4-carboxamide], in that order: 0.1 µM and 220 nM.
For `CC1(C)C(=O)Nc2nc(-c3nn(Cc4ccccc4F)c4ncccc34)nc(C(=O)Nc3nccs3)c21` [Example 72, 2-[1-(2-fluorobenzyl)-1H-pyrazolo[3,4-b]pyridin-3-yl]-5,5-dimethyl-6-oxo-N-(1,3-thiazol-2-yl)-6,7-dihydro-5H-pyrrolo[2,3-d]pyrimidine-4-carboxamide], in that order: 1 µM and 46 nM.
For the molecule `CCC(C)NC(=O)c1nc(-c2nn(Cc3ccccc3F)c3ncccc23)nc2c1C(C)(C)C(=O)N2` (racemic) [Example 63, rac-N-(butan-2-yl)-2-[1-(2-fluorobenzyl)-1H-pyrazolo[3,4-b]pyridin-3-yl]-5,5-dimethyl-6-oxo-6,7-dihydro-5H-pyrrolo[2,3-d]pyrimidine-4-carboxamide], the MEC in experiment [1] turned out to be 0.1 µM. Further, in experiment [2], the half-inhibitory concentration (IC50) was found to be 11 nM.
As to `Cc1nc2c(cc1F)c(-c1nc3c(c(C(N)=O)n1)C(C)(C(F)(F)F)C(=O)N3)nn2Cc1ccccc1F` (racemic) [Example 12, rac-2-[5-fluoro-1-(2-fluorobenzyl)-6-methyl-1H-pyrazolo[3,4-b]pyridin-3-yl]-5-methyl-6-oxo-5-(trifluoromethyl)-6,7-dihydro-5H-pyrrolo[2,3-d]pyrimidine-4-carboxamide], the MEC in experiment [1] was 0.065 µM. Moreover, in experiment [2], inhibition was half-maximal at 130 nM (IC50).
For the molecule `COCCNC(=O)c1nc(-c2nn(Cc3cccc(F)c3F)c3nc(C)c(F)cc23)nc2c1C(C)(C)C(=O)N2` [Example 41], the MEC in experiment [1] stood at 0.065 µM. This molecule also returned a 50% inhibitory concentration (IC50) in experiment [2] of 88 nM.
For `COCCNC(=O)c1nc(-c2nn(Cc3ccccc3F)c3ncccc23)nc2c1C(C)(C)C(=O)N2` [Example 127, 2-[1-(2-fluorobenzyl)-1H-pyrazolo[3,4-b]pyridin-3-yl]-N-(2-methoxyethyl)-5,5-dimethyl-6-oxo-6,7-dihydro-5H-pyrrolo[2,3-d]pyrimidine-4-carboxamide] the same measures were 0.1 µM and 16 nM.
For `Cc1nc2c(cc1F)c(-c1nc3c(c(C(N)=O)n1)C(C)(C(F)(F)F)C(=O)N3)nn2Cc1c(F)ccc(F)c1F` (single isomer, unassigned; ent-2) [Example 16, ent-2-[5-Fluoro-6-methyl-1-(2,3,6-trifluorobenzyl)-1H-pyrazolo[3,4-b]pyridin-3-yl]-5-methyl-6-oxo-5-(trifluoromethyl)-6,7-dihydro-5H-pyrrolo[2,3-d]pyrimidine-4-carboxamide (enantiomer A)], in that order: 0.17 µM and 170 nM.

The values are drawn from patent US20170233413A1, “SUBSTITUTED ANNULATED PYRIMIDINES AND USE THEREOF” (Bayer Pharma Aktiengesellschaft, priority 2014, published 2017).
